Assay results from BindingDB's records for doi:10.7270/Q2BV7F1T (Pcmd, 2008).
Blank lines part the entries; values can stand above or below the compound they belong to.

Molecular target: T1, DNA repair protein RAD51 homolog 1 (Homo sapiens, UniProt Q06609)
T1 sequence (Q06609 whole entry): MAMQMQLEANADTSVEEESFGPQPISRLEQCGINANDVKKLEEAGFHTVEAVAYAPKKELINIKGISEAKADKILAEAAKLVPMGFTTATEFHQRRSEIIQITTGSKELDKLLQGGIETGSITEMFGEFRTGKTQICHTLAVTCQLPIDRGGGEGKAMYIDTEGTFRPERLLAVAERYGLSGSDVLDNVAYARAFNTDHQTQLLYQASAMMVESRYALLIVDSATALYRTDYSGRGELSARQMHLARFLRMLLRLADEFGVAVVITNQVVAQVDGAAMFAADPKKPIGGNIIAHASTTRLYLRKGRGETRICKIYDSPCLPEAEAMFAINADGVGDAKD
Test: RAD51 recombination inhibitor potency, dose response, biochemical, homologous recombination, fluorescence (AID 1435)

[1] = inactive by the depositor's call

Structure (SMILES): COc1cc(CN2CCN(c3ccc(C)cc3)CC2)cc([N+](=O)[O-])c1O [2-methoxy-4-[[4-(4-methylphenyl)-1-piperazinyl]methyl]-6-nitrophenol]
IC50: > 85 µM

Structure (SMILES): CCOC(=O)C1CCN(C(=O)c2ccco2)CC1 [1-(2-furoyl)isonipecotic acid ethyl ester]
IC50: > 85 µM

Structure (SMILES): O=C(CSc1ncn(-c2ccccc2)n1)c1cccs1
IC50: > 85 µM

Structure (SMILES): Cc1[nH]nc2c1C(=O)CCC2
IC50: > 85 µM

Structure (SMILES): CCN(CC)S(=O)(=O)c1ccc2c(c1)nc(SC(C)C(N)=O)n2-c1ccc(OC)cc1 (stereo not drawn) [2-[5-(diethylsulfamoyl)-1-(4-methoxyphenyl)benzimidazol-2-yl]sulfanylpropanamide]
IC50: 34.8 µM

Structure (SMILES): COC(=O)c1nc(N)sc1-c1ccccc1 [methyl 2-azanyl-5-phenyl-1,3-thiazole-4-carboxylate]
IC50 [1]: 42.5 µM

Structure (SMILES): CCCCNC(=S)NNC(=O)C12CC3CC(CC(C3)C1)C2
IC50: > 85 µM

Structure (SMILES): FC(F)(F)c1nnc2ccc(N3CCCC3)nn12 [6-(1-pyrrolidinyl)-3-(trifluoromethyl)[1,2,4]triazolo[4,3-b]pyridazine]
IC50: > 85 µM

Structure (SMILES): C=CCNc1oc(-c2ccc(OC)cc2)nc1C#N [2-(4-methoxyphenyl)-5-(prop-2-enylamino)-1,3-oxazole-4-carbonitrile]
IC50: > 85 µM

Structure (SMILES): Cc1cc(O)c(C=O)c2c1C(=O)Oc1c(CO)c(O)c3c(c1O2)C(O)OC3=O (stereo not drawn) [1,4,10-Trihydroxy-5-hydroxymethyl-8-methyl-3,7-dioxo-1,3-dihydro-7H-benzo[e]furo[3'''',4'''':3,4]benzo[b][1,4]dioxepine-11-carbaldehyde]
IC50: 8.02 µM

Structure (SMILES): O=C(NC1CCCCC1)c1cc([N+](=O)[O-])ccc1N1CCCCC1 [Glucosamine derivative, 8]
IC50 [1]: 42.5 µM

Structure (SMILES): O=C(Nc1ccc(-c2nc3ccccc3o2)cc1)c1ccc2c(c1)OCO2 [N-[4-(1,3-benzoxazol-2-yl)phenyl]-1,3-benzodioxole-5-carboxamide]
IC50: > 85 µM

Structure (SMILES): O=c1cc(-c2ccccc2Cl)oc2ccc([N+](=O)[O-])c(O)c12 [2-(2-chlorophenyl)-5-hydroxy-6-nitrochromen-4-one]
IC50: > 85 µM

Now from value to compound:

IC50: > 85 µM
Structure (SMILES): CCC(CC)c1nnc(NS(=O)(=O)Cc2ccccc2)s1 [SMR000074911]

IC50 [1]: 42.5 µM
Structure (SMILES): Cc1ccc(/C(C#N)=C\c2cn(C)c3ccccc23)cc1 [MLS000051428]

IC50: > 85 µM
Structure (SMILES): O=C(CN(Cc1ccco1)C(=O)CCC(=O)Nc1nccs1)NCc1ccccc1 [SMR000117995]

IC50: 5.45 µM
Structure (SMILES): COc1cc(C(=O)O)c2c(c1C)OC(=O)c1c(C)cc(O)c(C=O)c1O2 [NSC-92186]

IC50: > 85 µM
Structure (SMILES): O=C(O)/C=C/c1cn(Cc2ccccc2)nc1-c1ccccc1 [MLS000567315]
